# Where a name gives a salt, the structure may show the parent alone.
# Target: T1, mGluR5 receptor (Sus scrofa, UniProt I3LUI7)
# T1 construct: 450 μg of protein from brain homogenate with 5 nM ^3[H]-MPEP; from tissue; host or cells: pig brain halves without medulla, cerebellum and pons
# Test: [3H]-MPEP mGluR5 receptor binding assay (pig brain homogenate)
# Details: 5 nM [3H]-MPEP; for inhibition at 10 µM / % Inhibition of mGluR5 Receptor (pig) [^3H]-MPEP Bond at 10 μM: 10 μM compound; for inhibition at 10 µM: read-out: % Inhibition of mGluR5 Receptor (pig) [^3H]-MPEP Bond at 10 μM; for IC50: read-out: IC50 mGluR5 Receptor (pig) [^3H]-MPEP Bond
# Method in brief: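 Radioligand displacement of 5 nM [3H]-MPEP from pig brain homogenate (450 μg protein; medulla, cerebellum and pons removed) in 20 mM Hepes pH 8.0. Compounds were tested at 10 μM, incubated 60 min at room temperature, then filtered and counted by scintillation. Non-specific binding was defined with 10 μM MPEP.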
# T1 sequence (I3LUI7 19-1212): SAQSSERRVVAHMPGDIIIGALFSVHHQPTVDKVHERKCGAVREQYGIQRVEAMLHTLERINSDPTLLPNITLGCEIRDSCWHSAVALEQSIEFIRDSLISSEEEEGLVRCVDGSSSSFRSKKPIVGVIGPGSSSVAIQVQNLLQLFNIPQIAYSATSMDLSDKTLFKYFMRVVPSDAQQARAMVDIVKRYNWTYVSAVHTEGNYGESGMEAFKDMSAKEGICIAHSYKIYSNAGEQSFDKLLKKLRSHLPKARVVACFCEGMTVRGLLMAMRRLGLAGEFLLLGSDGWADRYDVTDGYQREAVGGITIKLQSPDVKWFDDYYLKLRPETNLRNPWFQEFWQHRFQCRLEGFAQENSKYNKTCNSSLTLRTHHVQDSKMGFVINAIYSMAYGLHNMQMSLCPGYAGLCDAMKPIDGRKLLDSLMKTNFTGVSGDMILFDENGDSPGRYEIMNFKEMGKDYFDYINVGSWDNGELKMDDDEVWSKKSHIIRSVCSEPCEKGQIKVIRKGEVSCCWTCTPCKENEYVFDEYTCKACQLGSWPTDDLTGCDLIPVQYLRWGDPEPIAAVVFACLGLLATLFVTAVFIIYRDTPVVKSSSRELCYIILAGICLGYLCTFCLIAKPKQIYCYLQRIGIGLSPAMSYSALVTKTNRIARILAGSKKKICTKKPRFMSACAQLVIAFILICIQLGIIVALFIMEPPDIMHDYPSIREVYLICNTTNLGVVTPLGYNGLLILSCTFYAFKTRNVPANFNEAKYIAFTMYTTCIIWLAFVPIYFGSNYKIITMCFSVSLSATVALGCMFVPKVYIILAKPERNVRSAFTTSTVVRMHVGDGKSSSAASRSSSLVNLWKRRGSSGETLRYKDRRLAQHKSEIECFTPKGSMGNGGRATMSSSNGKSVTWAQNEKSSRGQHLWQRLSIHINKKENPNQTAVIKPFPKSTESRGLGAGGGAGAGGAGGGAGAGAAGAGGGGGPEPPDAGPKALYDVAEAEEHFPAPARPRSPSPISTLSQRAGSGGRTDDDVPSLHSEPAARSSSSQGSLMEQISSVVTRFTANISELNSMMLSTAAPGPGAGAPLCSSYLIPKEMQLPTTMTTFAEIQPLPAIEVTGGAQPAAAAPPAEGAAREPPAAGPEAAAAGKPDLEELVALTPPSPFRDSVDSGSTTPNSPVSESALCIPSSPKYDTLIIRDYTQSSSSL
Compound,inhibition at 10 µM [%],other results
"CCCN(Cc1cccc(-c2ccc3ncnc(Nc4ccccc4)c3c2)c1)C(=O)c1ccncc1 [Example 92, N-[3-(4-phenylamino-quinazolin-6-yl)-benzyl]-N-propyl-isonicotinamide]",74,–
"COC(=O)CC(=O)N(Cc1cccc(-c2ccc3ncnc(NC4CC4)c3c2)c1)C1CC1 [Example 237, N-cyclopropyl-N-[3-(4-cyclopropylamino-quinazolin-6-yl)-benzyl]-methyl malonate]",–,IC50: 570 nM
"CC(C)(C)Nc1ncnc2ccc(-c3ccc(F)c(CN(C(=O)c4ccc(C(F)(F)F)cc4F)C4CC4)c3)cc12 [Example 860, N-(5-(4-(tert-butylamino)quinazolin-6-yl)-2-fluorobenzyl)-N-cyclopropyl-2-fluoro-4-(trifluoromethyl)benzamide]",63,–
"CCN(CC)c1ncnc2ccc(-c3cccc(CN(C)C(=O)Cc4ccccn4)c3)cc12 [Example 68, N-[3-(4-diethylamino-quinazolin-6-yl)-benzyl]-N-methyl-2-pyridin-2-yl-acetamide]",30,–
"COc1ccc(CN(C(=O)c2ccccc2)C2CC2)cc1-c1ccc2ncnc(NC3CC3)c2c1 [Example 267, N-cyclopropyl-N-(3-(4-(cyclopropylamino)quinazolin-6-yl)-4-methoxybenzyl)benzamide hydrochloride]",–,IC50: 6550 nM
"CC(=O)N(Cc1ccc(-c2ccc3ncnc(NC4CC4)c3c2)o1)C1CC1 [Example 232, N-cyclopropyl-N-[5-(4-cyclopropylamino-quinazolin-6-yl)-furan-2-yl-methyl]-acetamide]",–,IC50: 4270 nM
"O=C(c1ccccc1Br)N(Cc1cccc(-c2ccc3ncnc(N4CCCC4)c3c2)c1)C1CC1 [Example 122, 2-bromo-N-cyclopropyl-N-[3-(4-pyrrolidin-1-yl-quinazolin-6-yl)-benzyl]-benzamide]",37,–
"COCC(=O)N(C)Cc1cc(-c2ccc3ncnc(NCc4ccccc4)c3c2)ccc1F [Example 557, N-(5-(4-(benzylamino)quinazolin-6-yl)-2-fluorobenzyl)-2-methoxy-N-methylacetamide]",42,–
"COc1ccc(C(=O)N(Cc2ccccc2)Cc2cccc(-c3ccc4ncnc(NC(C)C)c4c3)c2)cc1 [Example 155, N-benzyl-N-[3-(4-isopropylamino-quinazolin-6-yl)-benzyl]-4-methoxy-benzamide]",67,–
"CC(C)S(=O)(=O)N(Cc1cc(-c2ccc3ncnc(NC4CC4)c3c2)ccc1Cl)C1CC1 [Example 854, N-(2-chloro-5-(4-(cyclopropylamino)quinazolin-6-yl)benzyl)-N-cyclopropyl propane-2-sulfonamide]",–,% Inhibition of mGluR5 Receptor (pig) [^3H]-MPEP Bond at 10 μM: 75%
"CC(C)(C)Nc1ncnc2ccc(-c3ccc(F)c(CN(C(=O)c4c(F)c(F)c(F)c(F)c4F)C4CC4)c3)cc12 [Example 840, N-(5-(4-(tert-butylamino)quinazolin-6-yl)-2-fluorobenzyl)-N-cyclopropyl-2,3,4,5,6-pentafluorobenzamide]",74,–
"CCCN(Cc1cccc(-c2ccc3ncnc(Nc4ccccc4)c3c2)c1)C(=O)c1cc2ccccc2cn1 [Example 100, isoquinoline-3-carboxylic acid [3-(4-phenylamino-quinazolin-6-yl)-benzyl]-propyl-amide]",36,–
"O=C1c2ccccc2C(=O)N1Cc1cccc(-c2ccc3ncnc(NC4CC4)c3c2)c1 [Example 241, 2-[3-(4-cyclopropylamino-quinazolin-6-yl)-benzyl]-isoindole-1,3-dione; hydrochloride]",33,–
"O=C1CCC(=O)N1Cc1cccc(-c2ccc3ncnc(NC4CC4)c3c2F)c1 [Example 904, 1-(3-(4-(cyclopropylamino)-5-fluoroquinazolin-6-yl)benzyl)pyrrolidine-2,5-dione]",–,IC50: 220 nM
"O=S(=O)(Cc1ccccc1)N(Cc1cc(-c2ccc3ncnc(NC4CC4)c3c2)ccc1Cl)C1CC1 [Example 771, N-(2-chloro-5-(4-(cyclopropylamino)quinazolin-6-yl)benzyl)-N-cyclopropyl-1-phenylmethane sulfonamide]",80,–
"CNc1ncnc2ccc(-c3ccc(F)c(CN(C)C(=O)c4ccc(C(F)(F)F)cc4F)c3)cc12 [Example 593, 2-fluoro-N-(2-fluoro-5-(4-(methylamino)quinazolin-6-yl)benzyl)-N-methyl-4-(trifluoromethyl)benzamide]",52,–
"O=C(c1ccncc1)N(Cc1cccc(-c2ccc3ncnc(NCCc4ccccc4)c3c2)c1)C1CC1 [Example 377, N-cyclopropyl-N-(3-(4-(phenethylamino)quinazolin-6-yl)benzyl)isonicotinamide]",59,–
"O=S(=O)(c1ccc(Cl)cc1Cl)N(Cc1cccc(-c2cc(F)c3ncnc(NC4CC4)c3c2)c1)C1CC1 [Example 782, 2,4-dichloro-N-cyclopropyl-N-(3-(4-(cyclopropylamino)-8-fluoroquinazolin-6-yl)benzyl)benzole sulfonamide]",–,% Inhibition of mGluR5 Receptor (pig) [^3H]-MPEP Bond at 10 μM: 50%
"O=C(c1ccccn1)N(Cc1cccc(-c2ccc3ncnc(NC4CC4)c3c2)c1)C1CC1 [Example 275, N-cyclopropyl-N-(3-(4-(cyclopropylamino)quinazolin-6-yl)benzyl) picolinamide]",–,IC50: 1380 nM
"Cc1cc2ncnc(NC3CC3)c2cc1-c1cccc(CN(C(=O)c2c(F)c(F)c(F)c(F)c2F)C2CC2)c1 [Example 768, N-cyclopropyl-N-(3-(4-(cyclopropylamino)-7-methylquinazolin-6-yl)benzyl)-2,3,4,5,6-pentafluorobenzamide]",88,–
"O=C(c1cccnc1)N(Cc1cccc(-c2ccc3ncnc(NC4CC4)c3c2)c1)C1CC1 [Example 248, N-cyclopropyl-N-[3-(4-cyclopropylamino-quinazolin-6-yl)-benzyl]-nicotinamide]",–,IC50: 3150 nM
"CC(C)S(=O)(=O)N(Cc1cccc(-c2cc(F)c3ncnc(NC4CC4)c3c2)c1)C1CC1 [Example 824, N-cyclopropyl-N-(3-(4-(cyclopropylamino)-8-fluoroquinazolin-6-yl)benzyl)propane-2-sulfonamide]",71,–
"O=S(=O)(c1ccc(Cl)cc1Cl)N(Cc1cc(-c2ccc3ncnc(NC4CC4)c3c2)ccc1F)C1CC1 [Example 391, 2,4-dichloro-N-cyclopropyl-N-(5-(4-(cyclopropylamino)quinazolin-6-yl)-2-fluorobenzyl)benzole sulfonamide]",–,% Inhibition of mGluR5 Receptor (pig) [^3H]-MPEP Bond at 10 μM: 74%
"CS(=O)(=O)N(Cc1cccc(-c2ccc3ncnc(NCCc4ccccc4)c3c2)c1)C1CC1 [Example 440, N-cyclopropyl-N-(3-(4-(phenethylamino)quinazolin-6-yl)benzyl)methane sulfonamide]",73,–

# More lines, main results first:
inhibition at 10 µM [%],Compound,other results
99,"O=C(c1ccccc1Cl)N(Cc1cccc(-c2ccc3ncnc(NC4CC4)c3c2)c1)C1CC1 [Example 172, 2-chloro-N-cyclopropyl-N-[3-(4-cyclopropylamino-quinazolin-6-yl)-benzyl]-benzamide]",–
91,"O=S(=O)(c1cccs1)N(Cc1cc(-c2ccc3ncnc(NC4CC4)c3c2)ccc1Cl)C1CC1 [Example 734, N-(2-chloro-5-(4-(cyclopropylamino)quinazolin-6-yl)benzyl)-N-cyclopropylthiophene-2-sulfonamide]",–
86,"O=C(c1ccc(Br)s1)N(Cc1cccc(-c2ccc3ncnc(NC4CC4)c3c2)c1)C1CC1 [Example 166, 5-bromo-thiophene-2-carboxylic acid cyclopropyl-[3-(4-cyclopropylamino-quinazolin-6-yl)-benzyl]-amide]",–
91,"O=C(c1ccco1)N(Cc1cccc(-c2ccc3ncnc(NC4CC4)c3c2)c1)C1CC1 [Example 169, furan-2-carboxylic acid cyclopropyl-[3-(4-cyclopropylamino-quinazolin-6-yl)-benzyl]-amide]",–
63,"CN(C)CC(=O)N(Cc1cc(-c2ccc3ncnc(NC4CC4)c3c2)ccc1F)C1CC1 [Example 398, N-cyclopropyl-N-(5-(4-(cyclopropylamino)quinazolin-6-yl)-2-fluorobenzyl)-2-(dimethylamino)acetamide]",–
85,"COCC(=O)N(Cc1cccc(-c2cc3c(NC4CC4)ncnc3cc2C)c1)C1CC1 [Example 797, N-cyclopropyl-N-(3-(4-(cyclopropylamino)-7-methylquinazolin-6-yl)benzyl)-2-methoxyacetamide]",–
84,"O=C(c1cnccn1)N(Cc1cccc(-c2ccc3ncnc(NC4CC4)c3c2)c1)C1CC1 [Example 162, pyrazine-2-carboxylic acid cyclopropyl-[3-(4-cyclopropylamino-quinazolin-6-yl)-benzyl]-amide]",–
40,"CC(=O)N(CC#N)Cc1cccc(-c2ccc3ncnc(NC4CC4)c3c2)c1 [Example 200, N-cyanomethyl-N-[3-(4-cyclopropylamino-quinazolin-6-yl)-benzyl]-acetamide]",–
47,"CC(=O)N(Cc1cncc(-c2ccc3ncnc(NC4CC4)c3c2)c1)C1CC1 [Example 240, N-cyclopropyl-N-[5-(4-cyclopropylamino-quinazolin-6-yl)-pyridin-3-yl-methyl]-acetamide]",–
88,"O=C(c1ccc(F)cc1F)N(Cc1cc(-c2ccc3ncnc(NC4CC4)c3c2)ccc1Cl)C1CC1 [Example 792, N-(2-chloro-5-(4-(cyclopropylamino)quinazolin-6-yl)benzyl)-N-cyclopropyl-2,4-difluorobenzamide]",–
51,"c1nc(NC2CC2)c2cc(-c3csc(CNC4CC4)c3)ccc2n1 [Example 300, N-cyclopropyl-6-(5-((cyclopropylamino)methyl)thiophen-3-yl)quinazoline-4-amine]",–
